Results published in ChEMBL document CHEMBL1130875, “Conformationally constrained analogues of diacylglycerol (DAG). 14. Dissection of the roles of the sn-1 and sn-2 carbonyls in DAG mimetics by isopharmacophore replacement” (Bioorg Med Chem Lett, 1998).

Target: Protein kinase C alpha type (Homo sapiens, UniProt P17252)
Experiment: Displacement of [20-3H]phorbol-12,13-dibutyrate from a recombinant PK-C alpha

| SMILES | Ki |
| --- | --- |
| CCCCCCCCCCCCC/C=C1\CC(CO)(COS(C)(=O)=O)OC1=O (centres undefined) | 823 nM |
| CCCCCCCCCCCCCCS(=O)(=O)OCC1(CO)CCC(=O)O1 (centres undefined) | 90.7 nM |
| CCCCCCCCCCCCC/C=C1\CC(CO)(COC(C)=O)OS1(=O)=O (centres undefined) | 320 nM |
| CCCCCCCCCCCCCC(=O)OCC1(CO)CCS(=O)(=O)O1 (centres undefined) | 1040 nM |
